# Legend:
# [1] = exposure after administration by oral route; assay type: in vivo; details: qualitative
# rat motor neurons = test: in vitro model of trophic deprivation of rat motor neurons (survival, calcein fluorescence after 3 days); assay type: cell-based; details: E14 rat motor neurons, Neurobasal medium without neurotrophic factors
# Text: Reference can usefully be made to the applicant's patent application WO 0142784 on the culturing of motor neurons of the spinal cord.
# The spinal cord of E14 rat embryos is dissected and the ventral part is dissociated by trituration after trypsination.
# The motor neurons are separated from the other spinal cells by a known method (Camu et al., 1993, Purification of spinal motoneurons from chicken and rat embryos by immunopanning. In “Immunoselection Strategies for Neural cell culture”, Neuroprotocols: A companion to Methods in Neurosciences 2, 191-199; Henderson et al., 1993, Neutrophins promote motor neuron survival and are present in embryonic limb bud. Nature 363 (6426):266-70).
# The cells are centrifuged on a density gradient. The fraction of large cells (the least dense) is enriched with motor neurons. The cells in this fraction are incubated with an anti-p75 antibody, a surface antigen present on the motor neurons.
# Secondary antibodies coupled to magnetic beads are added and the mixture of cells is passed through a column in a magnet (Arce et al., 1999 Cardiotrophin-1 requires LIFRbeta to promote survival of mouse motoneurons purified by a novel technique. J. Neurosci Res 55 (1): 119-26). Only the motor neurons are retained: their purity is of the order of 90%.
# The motor neurons are seeded at a low density in culture wells on a polyornithine-laminin substrate in a neurobasal medium (GIBCO) supplemented according to Raoul et al., 1999, Programmed cell death of embryonic motoneurons triggered through the Fas death receptor. J Cell Biol 147 (5):1049-62.
# Negative controls (absence of trophic factors) and positive controls (in the presence of BDNF (Brain-Derived Neurotrophic Factor) at 1 ng/ml, GDNF (Glial-Derived Neurotrophic Factor) at 1 ng/ml and CNTF (Ciliary Neurotrophic Factor) at 10 ng/ml, marketed by the American company PEPROTECH, Inc. and the company Sigma-Aldrich, are included in each series.
# The compounds to be tested are added 60 minutes after seeding and the cultures are maintained at 37° C. under 5% CO2 for 3 days.
# The motor neurons have a spontaneous tendency to die in the absence of neurotrophic factors (Pettmann and Henderson, 1998, Neuronal cell death. Neuron 20 (4):633-47). After 3 days, the survival is evaluated by a fluorescence measurement after incubation of the cells in the presence of calcein which becomes fluorescent in living cells.
# After 3 days in culture at 37° C., under 5% CO2 and under saturation humidity, up to 50% of the motor neurons initially seeded survive in the medium supplemented with neurotrophic factors, whilst less than 15% of the motor neurons survive in culture medium without added neurotrophic factors.
# The neuroprotective activity of the compounds to be tested was evaluated by their ability to prevent the death of the motor neurons when they are added to the Neurobasal medium (GIBCO) in comparison with the survival of the motor neurons in medium with added neurotrophic factors.
# This survival rate is expressed by the number of living cells after treatment with the compound to be tested compared with the survival induced by the neurotrophic factors. This ratio can therefore represent the survival percentage due to the compound tested compared with the survival induced by the neurotrophic factors. If the ratio is greater than 0, the effect of the compounds on the survival of the motor neurons is positive.
Structure (SMILES),exposure when administered by oral route [1],Ratio (survival of motor neurons with compound compared with the survival induced by the neurotrophic factors) (rat motor neurons; Concentration 3 μM),Ratio (survival of motor neurons with compound compared with the survival induced by the neurotrophic factors) (rat motor neurons; Concentration 1 μM)
"CC(C)CCC[C@@H](C)[C@H]1CCC2C3CCC4=C(F)/C(=N/O)CC[C@]4(C)C3CC[C@@]21C (stereo partly drawn) [Example 2b, 3-oxyimino-4-fluoro-cholest-4-ene]",improved exposure,0.73,
"CC(C)CCC[C@@H](C)[C@H]1CCC2C3C[C@@H](F)C4=CC(=NO)CC[C@]4(C)C3CC[C@@]21C (stereo partly drawn) [Example 2c, 3-oxyimino-6β-fluoro-cholest-4-ene]",,0.50,
"CC(C)CCC[C@@H](C)[C@H]1CCC2C3CCC4=C/C(=N/O)C(F)(F)C[C@]4(C)C3CC[C@@]21C (stereo partly drawn) [Example 2d, 3-oxyimino-2,2-difluoro-cholest-4-ene]",,0.50,
"CC(C)CCC[C@@H](C)[C@H]1CC[C@H]2[C@@H]3CC(F)C4=CC(=NO)C(F)C[C@]4(C)[C@H]3CC[C@]12C (stereo partly drawn) [Example 2e, 3-oxyimino-2,6-difluoro-cholest-4-ene]",,0.37,
"CC(C)CCC[C@@H](C)[C@H]1CC[C@H]2[C@@H]3CCC4=CC(=NO)[C@H](F)C[C@]4(C)[C@H]3CC[C@]12C [Example 2f, 3-oxyimino-2α-fluoro-cholest-4-ene]",,0.27,
"CC(CCC[C@@H](C)[C@H]1CC[C@H]2[C@@H]3CCC4=CC(=NO)CC[C@]4(C)[C@H]3CC[C@]12C)N(C)c1ccc([N+](=O)[O-])c2nonc12 (stereo partly drawn) [Example 2h, 3-oxyimino-25-[methyl(7-nitro-2,1,3-benzoxadiazol-4-yl)amino]-27-norcholest-4-ene]",,,0.66
"CC(CCCC(C)N(C)C(=O)CCCCC1SCC2NC(=O)NC21)C1CCC2C3CCC4=CC(=NO)CCC4(C)C3CCC12C (stereo not drawn) [Example 2i, 3-oxyimino-25-((N-(+)-biotinoyl-N-methyl)amino)-27-norcholest-4-ene]",,0.42,
"CC(C)CCC[C@@H](C)[C@H]1CC[C@H]2[C@@H]3CCC4=CC(=NO)CC[C@]4(CO)[C@H]3CC[C@]12C [Example 2k, 3-oxyimino-19-hydroxy-cholest-4-ene]",,0.49,
"CC(C)CCC[C@@H](C)[C@H]1CC[C@H]2[C@@H]3CCC4=CC(=NO)CC[C@]4(COC(=O)CCCCC4SCC5NC(=O)NC54)[C@H]3CC[C@]12C (stereo partly drawn) [Example 2l, 3-oxyimino-19-biotinyloxy-cholest-4-ene]",,,0.32
"CC(C)CCC[C@@H](C)[C@H]1CC[C@H]2[C@@H]3CCC4=CC(=NO)C(C)C[C@]4(C)[C@H]3CC[C@]12C (stereo partly drawn) [Example 2m, 3-oxyimino-2-methyl-cholest-4-ene]",,,0.42
"COC1=C2CC[C@H]3[C@@H]4CC[C@H]([C@H](C)CCCC(C)C)[C@@]4(C)CC[C@@H]3[C@@]2(C)CCC1=NO [Example 2n, 3-oxyimino-4-methoxy-cholest-4-ene]",,,0.34

# From patent US9447140B2, “Cholest-4-en-3-one oxime derivatives, pharmaceutical compositions containing same, and preparation method” (TROPHOS, priority 2008, dated 2016)
